Test system: Mycobacterium tuberculosis
Experiment: Selectivity for wild type Mycobacterium tuberculosis H37Rv ATCC 25618 over hygromycin-resistance Mycobacterium tuberculosis H37Rv ATCC 25618 overexpressing InhA
Assay type: functional

Question: How did the Selectivity ratio turn out when `CCNC(=O)[C@@H]1C[C@@H](NC(=O)c2cc(CC)nn2C)CN1C(=O)c1coc2ccccc12` was run?
Answer: Its Selectivity ratio is 16.

From ChEMBL document CHEMBL3124857, “Encoded library technology as a source of hits for the discovery and lead optimization of a potent and selective class of bactericidal direct inhibitors of Mycobacterium tuberculosis InhA” (J Med Chem, 2014)
